# Experimental data: patent US11672786B2, “Methods of treating diseases associated with repeat instability” (The Hospital for Sick Children, priority 2016, dated 2023)
# Where “and” joins values, the source holds several entries; their conditions need not be identical. Equal entries are not always repeated.
# How the values were obtained:
# [1] = tested on: Mapkap1 and Fgd4 loci in striatum from R6/2 mouse; assay: repeat-tract lengths of non-expanded loci in R6/2 striatum; assay type: in vivo; conditions: four injections, both sides of striatum
# [2] = tested on: HT1080-(CAG)850 contact inhibition; assay: small-pool PCR repeat instability, non-proliferating HT1080-(CAG)850 cells under contact inhibition; assay type: cell-based, human; conditions: 50 uM NA, 30 days
# Protocol: The construction of the HT1080-(CAG)850 cell model was described previously (Sathasivam et al., 1997, Hum. Genet., 99:692-5). Briefly, HT1080 (ATCC) human fibrosarcoma cells were co-transfected with a plasmid (LC15-R) containing 800-850 (CTG)●(CAG) repeats (Nakatani et al., 2005, Nat. Chem. Biol., 1:39-43) and a plasmid encoding PhiC31 integrase. Transfection was performed with a Nucleofector (Lonza, Basel, Switzerland), and stably transfected clones were selected with puromycin. […] The HT1080-non-transcribing (CAG)850 cell model was established by transfecting a plasmid modified from pLC16 by inserting an additional SV40 polyadenylation signal downstream of the repeats (in addition to the original polyadenylation signals located upstream of the repeats), so that CAG/CTG repeats are floxed by transcription-terminator elements. The AttB-PhiC31 system has been widely used for single copy integration. […] The HT1080 model cells and an HD primary fibroblast cell line, GM09197 (Coriell Biorepository) with a large expanded allele of 180 CAG repeats and a non-expanded allele of 23 repeats (Sathasivam et al., 1997, Hum. Genet., 99:[…]), the HD primary fibroblast cell line, GM02191 (Coreill Biorepository) with an expanded allele of 43 CAG repeats and a non-expanded allele of 19 repeats, were cultured at 37° C. with 5% CO2 in Dulbecco's modified Eagle's medium supplemented with 10% fetal bovine serum and 1% penicillin/streptomycin. Cells were treated with or without continuous exposure to 50-μM NA for 30 days (HT1080 cells) or for 40 days (fibroblast cells). For experiments on non-proliferating cells, HT1080 cells were grown to confluence and then treated for the same period. WST-1 assay was performed according to the manufacturer's instructions (Roche, Basel, Switzerland). All cell lines were tested to be free of Mycoplasma. Three biological replicates were performed for each experiment.
# Proliferation was inhibited by growth under contact inhibition and serum starvation, as previously performed. Degree of arrest from proliferation was assessed in living cells by counting BrdU positive cells after 24 hrs incubation with BrdU in proliferating or contact-inhibited (and serum starved) HT1080-(CAG)850 cells. The percentage of BrdU positive cells was 92.6% in proliferating cells and 8.17% in contact-inhibited cells. Although a small portion of HT1080-(CAG)850 cells were still proliferating even under contact-inhibition and serum starvation, the ratio is very small. Based on a calculation how many cells derive from a single cell after 30 days (the period that was studied) (proliferating, 1.926^30=348653546.6; contact inhibition, 1.0817^30=10.55), the effect of proliferation in contact-inhibited cells can be ignored.
# Genomic DNA was extracted from HT1080-(CAG)850 clones and HD primary fibroblasts using the Gentra Puregene Cell Kit (Qiagen, Valencia, Calif.). The expanded (CTG)●(CAG) repeats were sized by small-pool PCR (sp-PCR) followed by Southern blot as described previously (Sathasivam et al., 1997, Hum. Genet., 99:692-5). For HT1080 models, small-pool PCR (spPCR) was performed with the input of 1.4-1.7 genome equivalents. The repeat size difference in the models is, at most, 3000 base-pairs, therefore, being strictly conservative, a bias toward amplifying the shorter allele can be possible, even under optimized PCR conditions described herein. For HD primary fibroblasts, sp-PCR & Southern blots were performed as described previously with slight modifications (Tome et al., 2013, PLoS Genet., 9:e1003280). Briefly, the PCR primers listed in Table 1 were used, and blots were hybridized with a DIG-labeled (CAG)7 locked nucleic acid probe (Nakamori et al. 2009, Neuromuscul. Disord., 19:759-62).
# [3] = tested on: plasmids pDM79EF, pDM79HF, pKN16 with SV40 origin of replication; assay: in vitro SV40 replication assay by HeLa cell extracts; assay type: biochemical, human; conditions: NA 7.5 μM or 15 μM
# Protocol: Three circular plasmids containing the SV40 origin of replication, and an expanded (CAG)79●(CTG)79 repeat tract (pDM79EF and pDM79HF) or no repeats (pKN16), were replicated in vitro by human HeLa cell extracts and added recombinant SV40 T-Ag, without or with NA (7.5 μM or 15 μM) treatment. […] Replication products were purified and linearized with BanHI. An equal portion of the reaction material was also digested with BamHI and DpnI; DpnI digests un-replicated and partially-replicated material, as shown in the schematic (top figure).
# These templates containing repeats (pDM79EF and pDM79HF) and another substrate with SV40-ori and no-repeats (pKN16) were replicated in vitro by HeLa cell extract adding [α-^32P]dCTP and T-Antigen, as described in detail in Panigrahi et al. (2002, J. Biol. Chem., 277:13926-34) and Cleary et al. (2002, Nat. Genet., 31(1):37-46). Replication reaction was performed without or with NA (7.5 μM and 15 μM). Radioactive replication products were purified, linearized with BamHI, and treated with DpnI (for details see FIG. 9). […] Equal quantities of reaction products were resolved by electrophoresis on a 15-cm 1% agarose gel. The gel was run for 16 h at 4 V/cm in TBE buffer, dried, and exposed to Kodak film.
# [4] = single experiments Ex 1-3, cut-off ±25 repeats
substance,measurement,setting,value
naphthyridine-azaquinolone,length variation at Mapkap1 and Fgd4 loci,[1],Length variation was not observed
same,% Contraction,[2]; Total,53.3%
same,% Expansion,[2]; Total,16.6%
same,% Unchanged,[2]; Total,30.2%
same,Average Change of Repeat Size,[2]; Total,−90.9 number of repeats
same,% Unchanged,[2]; single experiments Ex 1-3,34.9% and 25.0% and 30.0%
same,% Contraction,[2]; [4],49.2% and 57.1% and 54.0%
same,% Expansion,[2]; [4],15.9% and 17.9% and 16.0%
same,effect on replication efficiency and replication fork progression,[3],does not affect replication efficiency or replication fork progression
